Here are results for one compound from US20240285612A1, “COMPOSITIONS COMPRISING AN AGONIST OF 5-HYDROXYTRYPTAMINE (5-HT) RECEPTOR SUBTYPE 3” (LDN Pharma Limited, priority 2021, published 2024).

Experiment [1] deals with 5-HT receptor 3A (HTR3A), transcript variant 2 mRNA. In words: Microarray gene expression of HTR3A transcript variant 2 mRNA in CD3+ lymphocytes treated 4 h. The experiment is classed as cell-based, human. On the procedure: (§1) CD3+ lymphocytes were isolated from the blood of haematologically normal volunteers. Cells placed into […] flasks at a concentration of 1×10^6/ml, and left to equilibrate in an incubator with a humidified atmosphere and 5% CO2 in air at 37° C. […] RNA extraction was performed using Trizol according to standard procedures, before being processed for microarray analysis according to the standard methodologies. Briefly, equal amounts of biotinylated cRNA was hybridised to the Illumina human HT12-v3 arrays for 18 h and subsequently processed according to manufacturer's instructions before scanning on an Illumina BeadArray Reader. The image data were processed using default values in GenomeStudio v2009.1 with imputation of missing data, before loading onto GeneSpring v9.0 for data normalisation and filtering. Data analyses were performed using Excel software, and the ratio of gene expression signals in treated vs. untreated calculated.

Experiment [2] concerns 5-HT receptor 3A (HTR3A), transcript variant 1 mRNA. In words: Microarray gene expression of HTR3A transcript variant 1 mRNA in CD3+ lymphocytes treated 4 h. Conditions: probe ILMN_1681492, HTR3A transcript variant 1, low dose naltrexone 10 nM. The class given is cell-based, human. As to the method: as §1

Molecules are shown by their SMILES.

Regarding `O=C1CC[C@@]2(O)[C@H]3Cc4ccc(O)c5c4[C@@]2(CCN3CC2CC2)[C@H]1O5` [NTX, morphinan-6-one, 17-(cyclopropylmethyl)-4,5-epoxy-3,14-dihydroxy-(5a)], the “levels of mRNA for one or more of 5-HT3 receptor proteins” value in experiment [1] (both high dose (10 uM) and low dose (10 nM) naltrexone, result in words) is listed as “selectively increase the levels of mRNA”. In addition, the “gene expression signal LDN” value in experiment [1] (probe ILMN_2371079, HTR3A transcript variant 2, low dose naltrexone 10 nM, 4 h, CD3+ lymphocytes) is 124.70; in experiment [2], 94.00. For the same compound, the “gene expression signal NTX” value in experiment [1] (probe ILMN_2371079, HTR3A transcript variant 2, naltrexone 10 uM, 4 h, CD3+ lymphocytes) is given as 151.75.
